# Measured values from patent US10597388B2, “Pyridazinone herbicides” (FMC CORPORATION, priority 2014, dated 2020).
# How the values were obtained:
# Type in all cases: in vivo
# [1] = tested on: pigweed (Amaranthus retroflexus); assay: Test A greenhouse herbicide test, pre- and postemergence
# Outline: (§1)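 Seeds in loam–sand blend received a preemergence directed soil spray; plants at 2–10 cm, one- to two-leaf stage, received postemergence sprays. Compounds in a non-phytotoxic solvent with surfactant. After about 10 d in a greenhouse, injury rated visually versus untreated controls on a 0–100 scale (100 = complete control).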
# kochia (Kochia scoparia) = assay: as above
# Outline: as §1
# [2] = tested on: ragweed (common ragweed, Ambrosia elatior); assay: as above
# Outline: as §1
# [3] = tested on: foxtail, giant (giant foxtail, Setaria faberii); assay: as above
# Outline: as §1
# corn (Zea mays) = assay: as above; details: Postemergence
# Outline: as §1
# [4] = tested on: wheat (Triticum aestivum); assay: as above; details: Postemergence
# Outline: as §1
# [5] = tested on: ryegrass, Italian (Italian ryegrass, Lolium multiflorum); assay: as above
# Outline: as §1
# [6] = tested on: velvetleaf (Abutilon theophrasti); assay: Test C greenhouse herbicide test, pre- and postemergence
# Outline: (§2)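 Pre- and postemergence greenhouse screen; values are visual control ratings, 0 meaning no effect and 100 complete kill, assigned relative to untreated plants after 13 to 15 d.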
# [7] = tested on: oilseed rape (Brassica napus); assay: as above
# Outline: as §2
# [8] = tested on: nutsedge, yellow (yellow nutsedge, Cyperus esculentus); assay: as above
# Outline: as §2
# [9] = tested on: galium (catchweed bedstraw, Galium aparine); assay: as above
# Outline: as §2
# [10] = Postemergence, 125 g ai/ha, 0 to 100 scale where 0 is no effect and 100 is complete control
# [11] = Postemergence, 500 g ai/ha, visual rating after approx. 10 d, 0 to 100 scale (0 no effect, 100 complete control)
# [12] = Preemergence, 125 g ai/ha, 0 to 100 scale where 0 is no effect and 100 is complete control
# [13] = Preemergence, 500 g ai/ha, 0 to 100 scale where 0 is no effect and 100 is complete control
# [14] = 125 g ai/ha, 0 to 100 scale where 0 is no effect and 100 is complete control
# [15] = 500 g ai/ha, visual rating after approx. 10 d, 0 to 100 scale (0 no effect, 100 complete control)
# [16] = Postemergence, 31 g ai/ha, scale 0 to 100 (0 no effect, 100 complete control)
# [17] = Postemergence, 125 g ai/ha, scale 0 to 100, 0 is no effect, 100 is complete control
# [18] = Postemergence, 250 g ai/ha, scale 0 to 100, 0 no effect, 100 complete control, 13 to 15 d
# [19] = Preemergence, 31 g ai/ha, scale 0 to 100, 0 is no effect, 100 is complete control
# [20] = Preemergence, 62 g ai/ha, scale 0 to 100, 0 is no effect, 100 is complete control
# [21] = Preemergence, 125 g ai/ha, scale 0 to 100, 0 is no effect, 100 is complete control
# [22] = Preemergence, 250 g ai/ha, scale 0 to 100 (0 no effect, 100 complete control)
smiles,measurement,setting,value
CCCC(=O)Oc1c(C)nn(C)c(=O)c1-c1c(C)sc2c(C)cc(C)cc12 [Compound 106],"Plant response rating, Pigweed",[1]; [10],90
same,"Plant response rating, Pigweed",[1]; [11],90
same,Pigweed plant response rating,[1]; [12],100
same,"Plant response rating, Pigweed",[1]; [13],100
same,"Plant response rating, Kochia",kochia (Kochia scoparia); [10],70
same,"Plant response rating, Kochia",kochia (Kochia scoparia); [11],90
same,Kochia plant response rating,kochia (Kochia scoparia); [12],20
same,"Plant response rating, Kochia",kochia (Kochia scoparia); [13],90
same,"Plant response rating, Ragweed",[2]; [10],90
same,"Plant response rating, Ragweed",[2]; [11],90
same,Ragweed plant response rating,[2]; [12],90
same,"Plant response rating, Ragweed",[2]; [13],100
same,"Plant response rating, Foxtail, Giant",[3]; [10],90
same,"Plant response rating, Foxtail, Giant",[3]; [11],90
same,"Foxtail, Giant plant response rating",[3]; [12],100
same,"Plant response rating, Foxtail, Giant",[3]; [13],100
same,"Plant response rating, Corn",corn (Zea mays); [14],0
same,"Plant response rating, Corn",corn (Zea mays); [15],20
same,"Plant response rating, Wheat",[4]; [14],0
same,"Plant response rating, Wheat",[4]; [15],20
same,"Plant response rating, Ryegrass, Italian",[5]; [10],90
same,"Plant response rating, Ryegrass, Italian",[5]; [11],100
same,"Ryegrass, Italian plant response rating",[5]; [12],100
same,"Plant response rating, Ryegrass, Italian",[5]; [13],100
same,"Plant response rating, Velvetleaf",[6]; [16],80
same,"Plant response rating, Velvetleaf",[6]; [17],90
same,"Plant response rating, Velvetleaf",[6]; [18],100
same,"Plant response rating, Velvetleaf",[6]; [19],40
same,"Plant response rating, Velvetleaf",[6]; [20],60
same,"Plant response rating, Velvetleaf",[6]; [21],85
same,Velvetleaf plant response rating,[6]; [22],90
same,"Plant response rating, Oilseed Rape",[7]; [16],60
same,"Plant response rating, Oilseed Rape",[7]; [17],85
same,"Plant response rating, Oilseed Rape",[7]; [18],95
same,"Plant response rating, Oilseed Rape",[7]; [19],0
same,"Plant response rating, Oilseed Rape",[7]; [20],0
same,"Plant response rating, Oilseed Rape",[7]; [21],30
same,Oilseed Rape plant response rating,[7]; [22],90
same,"Plant response rating, Nutsedge, Yellow",[8]; [16],65
same,"Plant response rating, Nutsedge, Yellow",[8]; [17],90
same,"Plant response rating, Nutsedge, Yellow",[8]; [18],80
same,"Plant response rating, Nutsedge, Yellow",[8]; [19],60
same,"Plant response rating, Nutsedge, Yellow",[8]; [20],70
same,"Plant response rating, Nutsedge, Yellow",[8]; [21],80
same,"Nutsedge, Yellow plant response rating",[8]; [22],90
same,"Plant response rating, Galium",[9]; [16],95
same,"Plant response rating, Galium",[9]; [17],95
same,"Plant response rating, Galium",[9]; [18],100
same,"Plant response rating, Galium",[9]; [19],90
same,"Plant response rating, Galium",[9]; [20],90
same,"Plant response rating, Galium",[9]; [21],95
same,Galium plant response rating,[9]; [22],95
CCC(=O)Oc1c(C)nn(C)c(=O)c1-c1c(C)sc2ccc(Cl)cc12 [Compound 109],"Plant response rating, Pigweed",[1]; [10],90
same,"Plant response rating, Pigweed",[1]; [11],90
same,Pigweed plant response rating,[1]; [12],100
same,"Plant response rating, Pigweed",[1]; [13],100
same,"Plant response rating, Kochia",kochia (Kochia scoparia); [10],90
same,"Plant response rating, Kochia",kochia (Kochia scoparia); [11],90
same,Kochia plant response rating,kochia (Kochia scoparia); [12],100
same,"Plant response rating, Kochia",kochia (Kochia scoparia); [13],100
same,"Plant response rating, Ragweed",[2]; [10],80
same,"Plant response rating, Ragweed",[2]; [11],100
same,Ragweed plant response rating,[2]; [12],100
same,"Plant response rating, Ragweed",[2]; [13],100
same,"Plant response rating, Foxtail, Giant",[3]; [10],70
same,"Plant response rating, Foxtail, Giant",[3]; [11],90
same,"Foxtail, Giant plant response rating",[3]; [12],90
same,"Plant response rating, Foxtail, Giant",[3]; [13],100
same,"Plant response rating, Corn",corn (Zea mays); [14],0
same,"Plant response rating, Corn",corn (Zea mays); [15],30
same,"Plant response rating, Wheat",[4]; [14],20
same,"Plant response rating, Wheat",[4]; [15],30
same,"Plant response rating, Ryegrass, Italian",[5]; [10],100
same,"Plant response rating, Ryegrass, Italian",[5]; [11],100
same,"Ryegrass, Italian plant response rating",[5]; [12],100
same,"Plant response rating, Ryegrass, Italian",[5]; [13],100
same,"Plant response rating, Velvetleaf",[6]; [16],75
same,"Plant response rating, Velvetleaf",[6]; [17],98
same,"Plant response rating, Velvetleaf",[6]; [18],100
same,"Plant response rating, Velvetleaf",[6]; [19],60
same,"Plant response rating, Velvetleaf",[6]; [20],75
same,"Plant response rating, Velvetleaf",[6]; [21],80
same,Velvetleaf plant response rating,[6]; [22],90
same,"Plant response rating, Oilseed Rape",[7]; [16],70
same,"Plant response rating, Oilseed Rape",[7]; [17],95
same,"Plant response rating, Oilseed Rape",[7]; [18],95
same,"Plant response rating, Oilseed Rape",[7]; [19],5
same,"Plant response rating, Oilseed Rape",[7]; [20],85
same,"Plant response rating, Oilseed Rape",[7]; [21],85
same,Oilseed Rape plant response rating,[7]; [22],90
same,"Plant response rating, Nutsedge, Yellow",[8]; [16],45
same,"Plant response rating, Nutsedge, Yellow",[8]; [17],80
same,"Plant response rating, Nutsedge, Yellow",[8]; [18],80
same,"Plant response rating, Nutsedge, Yellow",[8]; [19],40
same,"Plant response rating, Nutsedge, Yellow",[8]; [20],70
same,"Plant response rating, Nutsedge, Yellow",[8]; [21],90
same,"Nutsedge, Yellow plant response rating",[8]; [22],80
same,"Plant response rating, Galium",[9]; [16],98
same,"Plant response rating, Galium",[9]; [17],100
same,"Plant response rating, Galium",[9]; [18],100
same,"Plant response rating, Galium",[9]; [19],90
same,"Plant response rating, Galium",[9]; [20],90
same,"Plant response rating, Galium",[9]; [21],90
same,Galium plant response rating,[9]; [22],90
